Key:
WT-HCV protease-SEAP = details: SCID mice expressing WT-HCV protease-SEAP; cited from earlier work
neopterin = test: Multiple-dose 14-day study, serum neopterin (competitive ELISA); details: 750 mg q8h, day 14; baseline 10.48±0.84 nmol/l; ULN 7.7 nmol/l
[1] = Predicted human liver exposures versus replicon assay IC50/IC90; details: dose range studied
Excerpt: Liver exposures to VX-950 were predicted based on the integrated preclinical and clinical data.

[2] = tested on: AST (aspartate aminotransferase); test: Multiple-dose 14-day study, AST; format: in vivo, human; details: upon administration of VX-950
[3] = in vivo
HCV NS3/4A protease = HCV NS3/4A protease (Hepatitis C virus genotype 1a, UniProt P27958); test: In vitro cleavage of TRIF by HCV NS3/4A protease; format: biochemical; details: 10 μM VX-950, tNS3 protease 0-4 μM
HCV NS3/4A protease, sequence (P27958 1027-1208, other chains not shown): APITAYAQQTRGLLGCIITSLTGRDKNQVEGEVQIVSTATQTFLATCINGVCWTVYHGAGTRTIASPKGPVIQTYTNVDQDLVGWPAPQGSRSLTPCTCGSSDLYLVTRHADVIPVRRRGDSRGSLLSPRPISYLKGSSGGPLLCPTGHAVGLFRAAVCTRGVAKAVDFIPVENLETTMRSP
Description: The 35S methionine labeled coupled in vitro transcription/translation product of TRIF protein (as a substrate) was incubated with increasing concentration of tNS3 protease enzyme ranging from 0-4 μM either in the presence (Circles) or absence (Squares) of 10 μM VX-950, followed by SDS-PAGE and exposure to phosphorimager.

HCV genotype 1 = test: Multiple-dose 14-day study, plasma HCV RNA (Roche COBAS TaqMan HCV/HPS assay); format: in vivo, human
Excerpt: Detection of HCV RNA was done using the Roche COBAS TaqMan HCV/HPS assay, available from Roche molecular Diagnostics. Other assays are available.

IFN-β promoter activity = test: IFN-β promoter luciferase activity in Sendai virus stimulated Huh7 cells expressing HCV protease; details: 10 μM VX-950, Sendai virus infected Huh7 cells, WT HCV protease
[4] = tested on: ALT (alanine aminotransferase); test: Multiple-dose 14-day study, serum ALT; details: 450 mg q8h, day 12; 5 out of 10 samples missing

## CCC[C@H](NC(=O)[C@@H]1[C@H]2CCC[C@H]2CN1C(=O)[C@@H](NC(=O)[C@@H](NC(=O)c1cnccn1)C1CCCCC1)C(C)(C)C)C(=O)C(=O)NC1CC1 [VX-950]
WT-HCV protease-SEAP
  effect on elevated ALT levels in animal model: ameliorates elevated ALT levels
neopterin
  mean neopterin: 7.32 ± 0.48 nmol/L
[1]
  predicted average liver concentration as multiple of the replicon assay IC50: up to 113 fold
  predicted average liver concentration as multiple of the replicon assay IC90: up to 57 fold
[2]
  effect on AST levels: decreased
[3]
  severe (grade 3 or grade 4) adverse events: No adverse events were considered to be severe
HCV NS3/4A protease
  effect on in vitro cleavage of TRIF: inhibits in vitro cleavage of TRIF
HCV genotype 1; category >−1 to <0, 450 mg q8 h (n = 10)
  Maximum change from baseline in HCV RNA (log10 IU/mL), subjects in category: 0 n
HCV genotype 1; category >−1 to <0, 750 mg q8 h (n = 8)
  Maximum change from baseline in HCV RNA (log10 IU/mL), subjects in category: 0 n
HCV genotype 1; category >−1 to <0, 1250 mg q12 h (n = 10)
  Maximum change from baseline in HCV RNA (log10 IU/mL), subjects in category: 0 n
HCV genotype 1; category >−2 to ≦−1, 450 mg q8 h (n = 10)
  Maximum change from baseline in HCV RNA (log10 IU/mL), subjects in category: 0 n
HCV genotype 1; category >−2 to ≦−1, 750 mg q8 h (n = 8)
  Maximum change from baseline in HCV RNA (log10 IU/mL), subjects in category: 0 n
HCV genotype 1; category >−2 to ≦−1, 1250 mg q12 h (n = 10)
  Maximum change from baseline in HCV RNA (log10 IU/mL), subjects in category: 0 n
HCV genotype 1; category >−3 to ≦−2, 450 mg q8 h (n = 10)
  Maximum change from baseline in HCV RNA (log10 IU/mL), subjects in category: 1 n
HCV genotype 1; category >−3 to ≦−2, 750 mg q8 h (n = 8)
  Maximum change from baseline in HCV RNA (log10 IU/mL), subjects in category: 0 n
HCV genotype 1; category >−3 to ≦−2, 1250 mg q12 h (n = 10)
  Maximum change from baseline in HCV RNA (log10 IU/mL), subjects in category: 1 n
HCV genotype 1; category >−4 to ≦−3, 450 mg q8 h (n = 10)
  Maximum change from baseline in HCV RNA (log10 IU/mL), subjects in category: 7 n
HCV genotype 1; category >−4 to ≦−3, 750 mg q8 h (n = 8)
  Maximum change from baseline in HCV RNA (log10 IU/mL), subjects in category: 3 n
HCV genotype 1; category >−4 to ≦−3, 1250 mg q12 h (n = 10)
  Maximum change from baseline in HCV RNA (log10 IU/mL), subjects in category: 9 n
HCV genotype 1; category >−5 to ≦−4, 450 mg q8 h (n = 10)
  Maximum change from baseline in HCV RNA (log10 IU/mL), subjects in category: 0 n
HCV genotype 1; category >−5 to ≦−4, 750 mg q8 h (n = 8)
  Maximum change from baseline in HCV RNA (log10 IU/mL), subjects in category: 3 n
HCV genotype 1; category >−5 to ≦−4, 1250 mg q12 h (n = 10)
  Maximum change from baseline in HCV RNA (log10 IU/mL), subjects in category: 0 n
HCV genotype 1; category ≧−5, 450 mg q8 h (n = 10)
  Maximum change from baseline in HCV RNA (log10 IU/mL), subjects in category: 2 n
HCV genotype 1; category ≧−5, 750 mg q8 h (n = 8)
  Maximum change from baseline in HCV RNA (log10 IU/mL), subjects in category: 2 n
HCV genotype 1; category ≧−5, 1250 mg q12 h (n = 10)
  Maximum change from baseline in HCV RNA (log10 IU/mL), subjects in category: 0 n
HCV genotype 1; during administration, all dose groups
  drop in viral load, every patient: > 2 log10
HCV genotype 1; within the first three days, of the 28 subjects receiving VX-950
  subjects with a 3 log10 reduction in HCV-RNA: 26
IFN-β promoter activity
  effect on IFNβ dependent gene expression: restores IFNβ dependent gene expression
[4]
  ALT level, median: 38 U/l
  ALT level, range: 25-125 U/l

Source: patent US8431615B2, “Dose forms” (priority 2004, dated 2013)
